Data set [1] is described as follows: Weight change after IP or IN administration (FIG. 8). Format: in vivo, mice. As to the method:
The purpose of this example was to evaluate and compare the impact on weight following administration of an aminosterol such as Aminosterol 1436 to mice via IP or IN.
Mice were administered: (i) intraperitoneally 1 mg/kg or 10 mg/kg of Aminosterol 1436, (ii) intranasally 0.4 mg/kg of Aminosterol 1436, or (iii) a saline control administered IN. Weight of the mice was then measured for 10 days post-administration.

Data set [2] can be described thus: Plasma pharmacokinetics after intranasal (IN) administration. Format: in vivo, Sprague Dawley® (SD) rats. From the text:
(§1) The purpose of this example was to evaluate the in vivo distribution and function of aminosterols, such as Aminosterol 1436 and squalamine, following intranasal administration. This experiment relates to the amount of drug needed to obtain a therapeutic result, based on an IN route of administration. The results described below detail that aminosterols such as Aminosterol 1436 act at the level of the hypothalamus following in vivo administration, regardless of the route of administration.
(§2) Pharmacokinetic information for these tests can be found in the tables below.

Data set [3] is described as follows: In vivo brain distribution of radiolabeled Aminosterol 1436 after ICV and IV administration. The arrangement: species or system rat. The settings on record: 3H-labeled. The text has this: The purpose of this example was to evaluate the in vivo distribution of Aminosterol 1436 following intracerebroventricular (ICV) and intravenous (IV) administration to rats. ICV injection is an invasive injection technique of substances directly into the cerebrospinal fluid in cerebral ventricles to bypass the blood brain barrier. The results described below detail how aminosterols such as Aminosterol 1436 localize in the brain following in vivo administration, regardless of the route of administration.
Radiolabeled Aminosterol 1436 was injected into rats by two different forms of administration: ICV and IV administration.

The nature of data set [4]: CSF concentration after intranasal (IN) administration. Format: in vivo, Sprague Dawley® (SD) rats.
Text: as §1, §2

Data set [5] can be described thus: Food intake and body weight after IP or ICV administration (FIG. 2B, 2C). Format: in vivo. The settings on record: 10 and 40 μg ICV, 5 mg/kg IP, 10 day period. From the text: The purpose of this example was to evaluate the in vivo distribution of the aminosterol Aminosterol 1436 following intraperitoneal administration (IP) and ICV administration, and to determine the impact the drug has on food intake and body weight when administered IP and ICV.
This experiment is relevant as the areas of the brain where the aminosterol Aminosterol 1436 localized upon administration are known to control feeding behavior and appetite.

Data set [6] is described as follows: PK profile, IV bolus compared with IN administration (FIG. 9). The note with it: rat, plasma. Format: in vivo. The text has this: Thus, the amount of aminosterol in the bloodstream is too low to account for the observed pharmacological effect. This means that when administered IN, an aminosterol is having a pharmacological effect via a mechanism other than via plasma concentration of the drug.

[7] abbreviates: Sprague-Dawley, rat, inhaled or intranasal, plasma, 0.5 mg/kg IN dose, mean.
Where [8] appears, read: plasma, 0.5 mg/kg IN dose, mean (Table 4).

“Also recorded” adds a separate entry of the source. Where two headings read alike, the source gives them in different places.

By AUC(0-inf) is commonly meant total exposure, with the tail of the curve extrapolated. Broadly, the AUC(0-t) is the area under the concentration-time curve up to a stated or last time point. A higher AUC(0-t) goes with high exposure. Usually Cmax stands for the maximum level reached in the sampled fluid or tissue. The term half-life denotes the time in which the quantity being followed falls by half. One may read the bioavailability as dose-corrected exposure relative to a reference, in per cent. The term AUC denotes concentration integrated over time. For the molecule `CC(C)[C@@H](CC[C@@H](C)[C@H]1CC[C@H]2[C@@H]3[C@H](O)C[C@H]4C[C@@H](NCCCNCCCCNCCCN)CC[C@]4(C)[C@H]3CC[C@]12C)OS(=O)(=O)O` [Aminosterol 1436], in data set [1] (0.4 mg/kg IN, 10 days post-administration), the “Decrease in weight, comparison in words” value was “comparable to 10 mg/kg of intraperitoneally administered Aminosterol 1436”. Further, the Decrease in weight entry in data set [1] (0.4 mg/kg intranasal (IN)) is “about 5%”. Besides, the “Effect on weight (anti-feeding effect)” value in data set [1] (1 mg/kg IP, compared with IN saline control) is “compared similarly to the intranasally administered saline control; also recorded: no anti-feeding effect”. Moreover, the Decrease in weight entry in data set [1] (10 mg/kg IP) was “about 19%”. For the same molecule, in data set [2] (IN versus peripherally injected), the “Blood levels after intranasal administration relative to peripherally injected” value turned out to be 10 times. In addition, in data set [2] (setting [7]), the AUC(0-inf) was found to be 17900 ng·h/mL, the area under the curve AUC(0-t) worked out at 9370 ng·h/mL, the Cmax is 1680 ng/mL and the half-life is 7.59 h. Also, in data set [2] (Sprague-Dawley, rat, inhaled or intranasal, plasma, 0.5 mg/kg IN dose, mean, read-out: MRTInf_obs), the MRT inf amounted to 11.1 h. Further, the Tmax in data set [2] (Sprague-Dawley, rat, inhaled or intranasal, plasma, 0.5 mg/kg IN dose, mean, read-out: Tmax) is 4 h. The “Site of localization in brain” value in data set [3] (ICV administration) is recorded as “localized to the same regions of the brain”. Moreover, the “Site of localization in brain” value in data set [3] (IV administration) is “localized in the hypothalamus”. In addition, the “Drug found in CSF” value in data set [4] (Sprague-Dawley, rat, in vivo, 0.5 mg/kg) is recorded as “No squalamine lactate or Aminosterol 1436 was found in CSF”. Besides, in data set [5], the “Effect on food intake” value is “significant impact on food intake”. The bioavailability in data set [6] (other: intranasal, IN 0.5 mg/kg compared with IV bolus 2 mg/kg) is around 20%. For the same molecule, in data set [6] (IV bolus 2 mg/kg, read-out: PK profile value after IV bolus injection (AUC)), the AUC came to 190000 ng·h/mL.

As for `CC(C)[C@@H](CC[C@@H](C)[C@H]1CC[C@H]2[C@@H]3[C@H](O)C[C@H]4C[C@@H](NCCCNCCCCN)CC[C@]4(C)[C@H]3CC[C@]12C)OS(=O)(=O)O.C[C@H](O)C(=O)O.O` [Squalamine Lactate], in data set [2] (setting [8]), the AUCInf is 7863 ng·h/mL, the AUClast was 5296 ng·h/mL, the MRTInf_obs stood at 7.12 H and the T1/2 stood at 4.55 H. For the same molecule, the Tmax in data set [2] (setting [8]) came out at 1.00 H. In data set [4] (CSF, 0.5 mg/kg IN), the “Drug found in CSF” value is “No squalamine lactate or Aminosterol 1436 was found in CSF”.

These data come from patent US20210260078A1, “LOW DOSAGE INTRANASAL AMINOSTEROL DOSAGE FORMS AND METHODS OF USING THE SAME” (Enterin, Inc., priority 2018, published 2021).
